Data reported in ChEMBL document CHEMBL5518230, “Identification of a Novel Selective CDK9 Inhibitor for the Treatment of CRC: Design, Synthesis, and Biological Activity Evaluation” (J Med Chem, 2024).
Calls of active or inactive are those of the source. The calls are words filed in the database; no cut-off is given here.

Legend:
[1] = Toxicity in BALB/c mouse xenografted with human HCT-116 cells assessed as kidney morphological change at 50 mg/kg,po administrated once daily for 3 weeks by hematoxylin and eosin staining based microscopic analysis; type: organism-based; conditions: in vivo, 504 h
[2] = AUC (0 to t) in Sprague-Dawley rat at 2 mg/kg,iv administration measured for 0.25 to 24 hrs by LC-MS/MS analysis; type: ADME, organism-based; conditions: in vivo, time 0.25-24 hrs
[3] = molecular target: Serine/threonine-protein kinase SIK2 (Homo sapiens) (UniProt Q9H0K1); assay: Inhibition of human QIK at 100 nM by kinase profiling assay relative to control
Serine/threonine-protein kinase SIK2 (Homo sapiens), sequence (Q9H0K1 whole entry, looked up): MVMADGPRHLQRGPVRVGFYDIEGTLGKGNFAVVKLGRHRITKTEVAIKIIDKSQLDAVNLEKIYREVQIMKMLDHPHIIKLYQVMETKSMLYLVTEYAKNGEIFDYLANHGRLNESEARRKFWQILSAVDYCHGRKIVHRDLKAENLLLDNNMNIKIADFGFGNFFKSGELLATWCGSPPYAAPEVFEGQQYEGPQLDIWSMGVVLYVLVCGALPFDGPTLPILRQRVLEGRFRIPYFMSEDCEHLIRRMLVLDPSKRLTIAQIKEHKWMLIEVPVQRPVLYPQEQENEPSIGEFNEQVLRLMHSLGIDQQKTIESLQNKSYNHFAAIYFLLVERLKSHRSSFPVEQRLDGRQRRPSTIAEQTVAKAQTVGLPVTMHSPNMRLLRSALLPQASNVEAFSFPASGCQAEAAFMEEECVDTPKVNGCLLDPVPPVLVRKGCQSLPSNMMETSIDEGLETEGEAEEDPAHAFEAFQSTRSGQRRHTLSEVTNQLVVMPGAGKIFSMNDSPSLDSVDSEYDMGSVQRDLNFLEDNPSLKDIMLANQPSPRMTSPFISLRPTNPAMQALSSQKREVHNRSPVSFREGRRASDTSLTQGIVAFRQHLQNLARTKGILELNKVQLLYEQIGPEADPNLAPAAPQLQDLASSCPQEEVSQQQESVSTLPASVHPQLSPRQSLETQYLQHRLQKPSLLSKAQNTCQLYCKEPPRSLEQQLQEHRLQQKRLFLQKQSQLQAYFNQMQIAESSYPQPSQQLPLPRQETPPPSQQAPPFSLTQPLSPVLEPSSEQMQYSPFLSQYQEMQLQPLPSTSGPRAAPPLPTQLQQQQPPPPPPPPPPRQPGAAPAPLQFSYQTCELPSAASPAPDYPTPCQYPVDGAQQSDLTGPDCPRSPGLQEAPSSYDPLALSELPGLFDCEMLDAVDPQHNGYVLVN

[4] = molecular target: Glycogen synthase kinase-3 beta (Homo sapiens) (UniProt P49841); assay: Inhibition of human GSK3beta at 100 nM by kinase profiling assay relative to control
Glycogen synthase kinase-3 beta (Homo sapiens), sequence (P49841 whole entry, looked up): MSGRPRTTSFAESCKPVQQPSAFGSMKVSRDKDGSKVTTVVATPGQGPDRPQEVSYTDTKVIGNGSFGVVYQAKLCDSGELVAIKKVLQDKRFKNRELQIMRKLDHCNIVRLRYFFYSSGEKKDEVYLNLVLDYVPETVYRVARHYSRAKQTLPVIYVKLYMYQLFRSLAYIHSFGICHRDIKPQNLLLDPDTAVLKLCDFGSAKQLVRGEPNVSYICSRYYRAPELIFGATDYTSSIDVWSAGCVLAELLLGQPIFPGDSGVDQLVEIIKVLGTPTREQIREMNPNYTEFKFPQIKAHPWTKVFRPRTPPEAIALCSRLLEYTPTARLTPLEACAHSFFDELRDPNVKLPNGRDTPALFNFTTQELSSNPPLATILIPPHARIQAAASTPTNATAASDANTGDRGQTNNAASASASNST

[5] = Half life in human plasma measured upto 120 mins by LC-MS/MS analysis; type: ADME, cell-free
[6] = tested on: HCT-116; assay: Induction of apoptosis in human HCT-116 cells assessed as downregulation of c-Myc mRNA expression at 25 to 400 nM incubated for 48 hrs by qRT-PCR analysis; type: functional, cell-based; conditions: dose 25-400 nM
[7] = Toxicity in BALB/c mouse xenografted with human HCT-116 cells assessed as spleen morphological change at 25 mg/kg,po administrated once daily for 3 weeks by hematoxylin and eosin staining based microscopic analysis; type: organism-based; conditions: in vivo, 504 h
[8] = tested on: HCT-116; assay: Induction of apoptosis in human HCT-116 cells assessed as increase in late apoptotic cells incubated for 48 hrs by Annexin V-FITC/PI staining based flow cytometric analysis; type: functional, cell-based
[9] = Toxicity in BALB/c mouse xenografted with human HCT-116 cells assessed as liver morphological change at 25 mg/kg,po administrated once daily for 3 weeks by hematoxylin and eosin staining based microscopic analysis; type: organism-based; conditions: in vivo, 504 h
[10] = MRT (0 to infinity) in Sprague-Dawley rat at 10 mg/kg,po administration measured for 0.25 to 24 hrs by LC-MS/MS analysis; type: ADME, organism-based; conditions: in vivo, time 0.25-24 hrs
[11] = molecular target: Rho-associated protein kinase 1 (Homo sapiens) (UniProt Q13464); assay: Inhibition of human ROCK1 at 100 nM by kinase profiling assay relative to control
Rho-associated protein kinase 1 (Homo sapiens), sequence (Q13464 2-1354 limits assumed): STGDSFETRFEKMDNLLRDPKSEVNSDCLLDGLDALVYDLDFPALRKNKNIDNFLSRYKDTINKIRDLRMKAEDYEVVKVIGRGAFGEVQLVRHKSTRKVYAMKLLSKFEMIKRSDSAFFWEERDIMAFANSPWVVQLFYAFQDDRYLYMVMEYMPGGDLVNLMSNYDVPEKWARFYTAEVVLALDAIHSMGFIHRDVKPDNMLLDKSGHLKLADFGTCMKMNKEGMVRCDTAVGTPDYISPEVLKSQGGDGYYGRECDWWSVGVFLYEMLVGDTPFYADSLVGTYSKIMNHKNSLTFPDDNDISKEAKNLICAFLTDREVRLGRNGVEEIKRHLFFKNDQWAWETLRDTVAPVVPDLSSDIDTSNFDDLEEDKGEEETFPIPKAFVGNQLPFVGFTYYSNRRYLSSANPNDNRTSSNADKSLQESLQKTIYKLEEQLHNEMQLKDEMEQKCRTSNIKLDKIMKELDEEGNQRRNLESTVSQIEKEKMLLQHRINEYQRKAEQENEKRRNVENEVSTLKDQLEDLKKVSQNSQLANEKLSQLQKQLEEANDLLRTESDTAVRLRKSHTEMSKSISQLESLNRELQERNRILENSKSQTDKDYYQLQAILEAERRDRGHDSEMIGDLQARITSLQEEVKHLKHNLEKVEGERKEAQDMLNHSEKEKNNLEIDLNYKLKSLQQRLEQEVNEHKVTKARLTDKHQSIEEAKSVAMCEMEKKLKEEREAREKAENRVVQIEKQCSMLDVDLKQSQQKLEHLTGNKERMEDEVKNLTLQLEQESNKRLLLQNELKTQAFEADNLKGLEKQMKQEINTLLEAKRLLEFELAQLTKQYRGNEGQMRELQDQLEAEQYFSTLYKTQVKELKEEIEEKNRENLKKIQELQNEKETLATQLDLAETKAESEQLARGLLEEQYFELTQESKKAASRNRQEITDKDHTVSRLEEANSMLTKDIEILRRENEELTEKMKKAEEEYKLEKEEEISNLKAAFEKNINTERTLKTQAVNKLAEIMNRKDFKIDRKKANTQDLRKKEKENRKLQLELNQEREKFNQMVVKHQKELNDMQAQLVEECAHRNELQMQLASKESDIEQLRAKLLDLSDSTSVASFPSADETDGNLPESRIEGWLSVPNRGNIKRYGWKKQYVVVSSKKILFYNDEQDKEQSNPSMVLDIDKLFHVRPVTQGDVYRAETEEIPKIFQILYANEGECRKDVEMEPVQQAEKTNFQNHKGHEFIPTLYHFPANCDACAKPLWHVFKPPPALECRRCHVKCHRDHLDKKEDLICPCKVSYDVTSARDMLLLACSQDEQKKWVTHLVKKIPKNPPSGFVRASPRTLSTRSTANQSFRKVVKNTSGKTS

[12] = C0 in Sprague-Dawley rat at 2 mg/kg,iv administration measured for 0.25 to 24 hrs by LC-MS/MS analysis; type: ADME, organism-based; conditions: in vivo, time 0.25-24 hrs
[13] = molecular target: T1, CYP1A2 (Homo sapiens, UniProt P05177); assay: Inhibition of CYP1A2 in human liver microsomes using alpha-naphthoflavone as […] at 10 uM preincubated for 10 mins followed by NADPH addition measured after 15 mins by LC-MS/MS analysis relative to control; type: ADME, Microsome; conditions: time 25 min
T1 sequence (P05177 whole entry): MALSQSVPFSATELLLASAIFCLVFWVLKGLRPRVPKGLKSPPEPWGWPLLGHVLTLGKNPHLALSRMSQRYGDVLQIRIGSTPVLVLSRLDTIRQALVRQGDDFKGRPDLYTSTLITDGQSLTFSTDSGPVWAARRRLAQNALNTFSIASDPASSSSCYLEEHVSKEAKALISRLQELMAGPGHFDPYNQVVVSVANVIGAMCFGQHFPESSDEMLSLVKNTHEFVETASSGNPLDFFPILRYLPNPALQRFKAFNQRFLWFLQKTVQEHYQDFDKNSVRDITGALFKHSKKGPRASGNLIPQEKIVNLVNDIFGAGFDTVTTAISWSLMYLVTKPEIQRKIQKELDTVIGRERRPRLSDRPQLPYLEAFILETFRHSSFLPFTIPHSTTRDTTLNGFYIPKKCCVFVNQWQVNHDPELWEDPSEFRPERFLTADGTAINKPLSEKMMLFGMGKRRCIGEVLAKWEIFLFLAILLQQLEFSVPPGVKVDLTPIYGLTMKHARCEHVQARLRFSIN

[14] = MRT (0 to t) in Sprague-Dawley rat at 2 mg/kg,iv administration measured for 0.25 to 24 hrs by LC-MS/MS analysis; type: ADME, organism-based; conditions: in vivo, time 0.25-24 hrs
[15] = tested on: HCT-116; assay: Induction of apoptosis in human HCT-116 cells assessed as downregulation of cleaved caspase-3 expression at 25 to 400 nM incubated for 48 hrs by Western blotting analysis; type: functional, cell-based; conditions: dose 25-400 nM
[16] = Cmax in Sprague-Dawley rat at 10 mg/kg,po administration measured for 0.25 to 24 hrs by LC-MS/MS analysis; type: ADME, organism-based; conditions: in vivo, time 0.25-24 hrs
[17] = Half life in Sprague-Dawley rat at 10 mg/kg,po administration measured for 0.25 to 24 hrs by LC-MS/MS analysis; type: ADME, organism-based; conditions: in vivo, time 0.25-24 hrs
[18] = molecular target: Protein kinase C alpha type (Homo sapiens) (UniProt P17252); assay: Inhibition of human PKCalpha at 100 nM by kinase profiling assay relative to control
[19] = tested on: SW480; assay: Growth inhibition of human SW480 cells incubated for 48 hrs by CCK-8 assay; type: functional
[20] = Toxicity in BALB/c mouse xenografted with human HCT-116 cells assessed as kidney morphological change at 25 mg/kg,po administrated once daily for 3 weeks by hematoxylin and eosin staining based microscopic analysis; type: organism-based; conditions: in vivo, 504 h
[21] = molecular target: Cyclin-dependent kinase 1 (Homo sapiens, UniProt P06493); assay: Inhibition of CDK1 (unknown origin)
Cyclin-dependent kinase 1, sequence (P06493 whole entry): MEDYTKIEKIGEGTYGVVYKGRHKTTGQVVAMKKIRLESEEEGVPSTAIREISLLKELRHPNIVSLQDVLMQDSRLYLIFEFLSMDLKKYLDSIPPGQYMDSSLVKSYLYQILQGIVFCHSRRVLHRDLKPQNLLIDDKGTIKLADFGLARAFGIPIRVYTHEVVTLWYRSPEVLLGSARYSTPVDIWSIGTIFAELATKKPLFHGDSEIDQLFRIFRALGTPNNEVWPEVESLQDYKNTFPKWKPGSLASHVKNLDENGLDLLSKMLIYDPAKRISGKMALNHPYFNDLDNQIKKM

[22] = tested on: HCT-116; assay: Induction of apoptosis in human HCT-116 cells assessed as downregulation of XIAP mRNA expression at 25 to 400 nM incubated for 48 hrs by qRT-PCR analysis; type: functional, cell-based; conditions: dose 25-400 nM
[23] = molecular target: Interleukin-1 receptor-associated kinase 1 (Homo sapiens) (UniProt P51617); assay: Inhibition of human IRAK1 at 100 nM by kinase profiling assay relative to control
Interleukin-1 receptor-associated kinase 1 (Homo sapiens), sequence (P51617 whole entry, looked up): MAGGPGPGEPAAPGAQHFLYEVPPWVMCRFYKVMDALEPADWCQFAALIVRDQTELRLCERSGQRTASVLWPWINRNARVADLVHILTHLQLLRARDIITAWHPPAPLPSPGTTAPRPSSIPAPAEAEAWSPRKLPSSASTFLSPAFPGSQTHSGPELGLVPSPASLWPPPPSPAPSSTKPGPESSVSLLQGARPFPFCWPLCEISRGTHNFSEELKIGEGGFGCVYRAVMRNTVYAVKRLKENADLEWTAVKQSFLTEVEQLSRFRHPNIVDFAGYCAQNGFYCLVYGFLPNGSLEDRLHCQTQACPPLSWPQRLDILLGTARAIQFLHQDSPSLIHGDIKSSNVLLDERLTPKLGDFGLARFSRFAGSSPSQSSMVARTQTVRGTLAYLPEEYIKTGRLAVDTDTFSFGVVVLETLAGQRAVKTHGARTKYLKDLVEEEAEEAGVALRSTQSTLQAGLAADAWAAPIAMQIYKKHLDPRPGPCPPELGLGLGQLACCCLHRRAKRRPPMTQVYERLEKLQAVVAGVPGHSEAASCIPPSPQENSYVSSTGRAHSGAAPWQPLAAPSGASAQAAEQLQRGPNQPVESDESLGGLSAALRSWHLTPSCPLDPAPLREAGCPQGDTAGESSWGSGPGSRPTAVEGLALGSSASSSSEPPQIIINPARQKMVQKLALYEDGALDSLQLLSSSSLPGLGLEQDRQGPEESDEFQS

[24] = molecular target: CYP2D6 (Homo sapiens, UniProt P10635); assay: Inhibition of CYP2D6 in human liver microsomes using quinidine as […] at 10 uM preincubated for 10 mins followed by NADPH addition measured after 15 mins by LC-MS/MS analysis relative to control; type: ADME, Microsome; conditions: time 25 min
CYP2D6, sequence (P10635 whole entry): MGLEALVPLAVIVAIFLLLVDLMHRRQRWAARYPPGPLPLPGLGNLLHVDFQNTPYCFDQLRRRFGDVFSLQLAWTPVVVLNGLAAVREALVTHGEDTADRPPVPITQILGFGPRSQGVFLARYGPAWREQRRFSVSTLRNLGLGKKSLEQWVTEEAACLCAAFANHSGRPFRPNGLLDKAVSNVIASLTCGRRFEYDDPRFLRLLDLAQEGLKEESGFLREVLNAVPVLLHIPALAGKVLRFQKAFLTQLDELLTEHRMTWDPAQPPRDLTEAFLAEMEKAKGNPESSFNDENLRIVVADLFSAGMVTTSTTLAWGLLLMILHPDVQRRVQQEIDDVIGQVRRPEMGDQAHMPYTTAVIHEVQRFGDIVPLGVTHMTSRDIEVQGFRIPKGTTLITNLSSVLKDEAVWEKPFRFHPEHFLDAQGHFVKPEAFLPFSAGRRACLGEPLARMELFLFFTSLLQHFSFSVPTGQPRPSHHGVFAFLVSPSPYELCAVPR

[25] = tested on: HCT-116; assay: Induction of apoptosis in human HCT-116 cells assessed as downregulation of […] mRNA expression at 25 to 400 nM incubated for 48 hrs by qRT-PCR analysis; type: functional, cell-based; conditions: dose 25-400 nM
[26] = Clearance in Sprague-Dawley rat at 2 mg/kg,iv administration measured for 0.25 to 24 hrs by LC-MS/MS analysis; type: ADME, organism-based; conditions: in vivo, time 0.25-24 hrs
[27] = molecular target: Cyclin-dependent kinase 12 (Homo sapiens, UniProt Q9NYV4); assay: Inhibition of CDK12 (unknown origin)
[28] = tested on: HCT-116; assay: Antitumor activity against human HCT-116 cells xenografted in BALB/c mouse assessed as downregulation of RNA polymerase II phosphorylation at 50 mg/kg,po administrated once daily for 3 weeks by Western blotting analysis; type: functional, organism-based
[29] = Tmax in Sprague-Dawley rat at 10 mg/kg,po administration measured for 0.25 to 24 hrs by LC-MS/MS analysis; type: ADME, organism-based; conditions: in vivo, time 0.25-24 hrs
[30] = Toxicity in BALB/c mouse xenografted with human HCT-116 cells assessed as body weight loss at 50 mg/kg,po administrated once daily for 3 weeks; type: organism-based; conditions: in vivo, 504 h
[31] = molecular target: Inhibitor of nuclear factor kappa-B kinase subunit alpha (Homo sapiens) (UniProt O15111); assay: Inhibition of human IKKalpha at 100 nM by kinase profiling assay relative to control

For `CC(C)n1nnc2ccc(-c3ccnc(Nc4cc(C(=O)N5CCCN(C)CC5)ccn4)c3)cc21`, the Activity [1] was “Non-Toxic”, the AUC(0-t) [2] was 0.361 µg·h/mL and the inhibition [3] was less than 50%. The inhibition [4] was less than 50%, the half-life [5] was greater than 4.82 h and the Activity [6] was “Active”. For the same compound, the Activity [7] was “Non-Toxic”, the Activity [8] was “Dose-Dependent Effect” and the Activity [9] was “Non-Toxic”. The MRT inf [10] was 7.02 h, the inhibition [11] was less than 50% and the C0 [12] was 0.459 µg/mL. For the same compound, the inhibition at 0.25 h, 10 µM [13] was 34.6%, the MRT last [14] was 1.48 h and the Activity [15] was “Active”. It also gave a Cmax [16] of 0.039 µg/mL, a half-life [17] of 5.28 h and an inhibition [18] of less than 50%. For the same compound, the GI50 [19] was 5.09 µM, the Activity [20] was “Non-Toxic” and the IC50 [21] was 0.439 µM. The Activity [22] was “Active”, the inhibition [23] was less than 50% and the inhibition at 0.25 h, 10 µM [24] was 9.9%. For the same compound, the Activity [25] was “Active”, the clearance [26] was 5.39 L/h/kg and the IC50 [27] was greater than 0.5 µM. For the same compound, the Activity [28] was “Active”, the Tmax [29] was 0.5 h and the Activity [30] was “Non-Toxic”. For the same compound, the inhibition [31] was less than 50%.
